How the values were obtained:
[1] = relative permittivity at zero frequency (dimensionless); settings: 101 kPa, Liquid, Coaxial cylinder capacitor
[2] = 101 kPa, Liquid, Pycnometric method
[3] = refractive index (Na D-line) (dimensionless); settings: 101.33 kPa, Liquid, Standard Abbe refractometry
[4] = relative permittivity at zero frequency (dimensionless); xn = mol fraction of the nth substance listed; settings: 101 kPa, Liquid, Coaxial cylinder capacitor, x2 = 0
[5] = refractive index (Na D-line) (dimensionless); xn = mol fraction of the nth substance listed; settings: 101 kPa, Liquid, Standard Abbe refractometry, x2 = 0
[6] = xn = mol fraction of the nth substance listed; settings: 101 kPa, Liquid, Pycnometric method, x2 = 0

O=S1(=O)CCCC1 [sulfolane]
Settings	mass density, [2] [kg/m3]	refractive index, [3]	relative permittivity at zero frequency, [1]
293.15 K	1270.8	1.4854	44.5
298.15 K	1266.5	1.4836	44
303.15 K	1262	1.4814	43.4
308.15 K	1257.6	1.4796	42.8
313.15 K	1253.2	1.478	42.2
318.15 K	1248.7	1.4762	41.6
323.15 K	1244.2	1.4744	41.1
328.15 K	1240.3	1.4726	40.4

O=S1(=O)CCCC1 [sulfolane] + CN(CCO)CCO
Settings	mass density, [6] [kg/m3]	refractive index, [5]	relative permittivity at zero frequency, [4]
293.15 K	1270.8	1.4854	44.5
298.15 K	1266.5	1.4836	44
303.15 K	1262	1.4814	43.4
308.15 K	1257.6	1.4796	42.8
313.15 K	1253.2	1.478	42.2
318.15 K	1248.7	1.4762	41.6
323.15 K	1244.2	1.4744	41.1
328.15 K	1240.3	1.4726	40.4

CN(CCO)CCO [N-methyldiethanolamine]
Settings	mass density, [2] [kg/m3]	refractive index, [3]	relative permittivity at zero frequency, [1]
293.15 K	1041.6	1.46935	22.9
298.15 K	1037.9	1.46724	22.4
303.15 K	1034.1	1.46532	21.8
308.15 K	1030.3	1.4631	21.3
313.15 K	1026.5	1.46074	20.8
318.15 K	1022.7	1.45892	20.3
323.15 K	1018.9	1.45708	19.8
328.15 K	1015	1.45513	19.3
